Values quoted from earlier work, collected in patent US20230301939A1, “NOVEL FO[…]” (Neurocentrx Pharma Ltd., priority 2018, published 2023).
Read-outs that look alike come from different tables or passages of the source.

Assays:
[1] = test system: mice
[2] = target: T1, a7 nicotinic acetylcholine receptor (Rattus norvegicus, UniProt Q05941); details: for Negative allosteric modulator activity in words: KXa7R1 cell line, ketamine at the same concentrations (<1 μM)
T1 construct: expressed in transfected cells; host or cells: KXa7R1 cell line (HEK293)
T1 sequence (Q05941 23-502): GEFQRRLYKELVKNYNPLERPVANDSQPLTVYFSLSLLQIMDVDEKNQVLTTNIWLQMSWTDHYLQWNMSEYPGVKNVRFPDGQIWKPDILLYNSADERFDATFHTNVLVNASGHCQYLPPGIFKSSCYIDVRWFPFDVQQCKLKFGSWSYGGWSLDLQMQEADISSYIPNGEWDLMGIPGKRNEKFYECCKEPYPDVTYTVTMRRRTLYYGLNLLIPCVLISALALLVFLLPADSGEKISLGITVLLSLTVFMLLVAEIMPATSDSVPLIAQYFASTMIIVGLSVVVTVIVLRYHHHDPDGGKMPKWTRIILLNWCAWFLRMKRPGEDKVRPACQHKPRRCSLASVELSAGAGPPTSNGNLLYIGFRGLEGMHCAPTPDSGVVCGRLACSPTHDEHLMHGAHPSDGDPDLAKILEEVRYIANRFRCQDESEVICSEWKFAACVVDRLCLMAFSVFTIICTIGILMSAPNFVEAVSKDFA

[3] = in vivo

N[C@@]1(c2ccccc2Cl)CCC[C@@H](O)C1=O [(2R,6R)-HNK]
Antidepressant(-like) effect [1]: ketamine-type antidepressant-like effects

CNC1(c2ccccc2Cl)CCCCC1=O (centres unmarked) [Ketamine, ketamine]
Bioavailability (intramuscularly): 93%
Time to peak plasma concentrations (intramuscularly): 5 to 15 min
Bioavailability (intranasally): 8-50%
Time to peak plasma concentrations (intravenously): within a minute
Bioavailability (oral route): 17-20%
Duration of action in a clinical setting (orally): 4 to 6 h
Time to peak plasma concentrations (orally): 30 min
Bioavailability (rectally): 30%
Negative allosteric modulator activity in words [2]: inactive

CN[C@@]1(c2ccccc2Cl)CCCCC1=O [arketamine]
Antidepressant(-like) effect [1]: greater and lasted longer than that of esketamine

NC1(c2ccccc2Cl)CCC=CC1=O (centres unmarked) [dehydronorketamine]
IC50 ([2]; KXa7R1 cell line (HEK293 cells transfected with rat nicotinic acetylcholine receptor genes)): 55 nM
Negative allosteric modulator activity in words [2]: nanomolar potencies

NC1(c2ccccc2Cl)CCCC(O)C1=O (centres unmarked) [hydroxynorketamine]
Negative allosteric modulator activity in words [2]: nanomolar potencies

NC1(c2ccccc2Cl)CCCCC1=O (centres unmarked) [norketamine]
Plasma levels relative to ketamine (following oral administration of ketamine): three times higher
Negative allosteric modulator activity in words [2]: nanomolar potencies
Potency as an anesthetic relative to ketamine [3]: one-third to one-fifth as potent
